Like-named read-outs stand apart in the source and are kept apart here.
Experiments:
EED (1-441)-His protein = molecular target: T1, EED (1-441)-His protein (Homo sapiens, UniProt O75530); assay: EED-H3K27Me3 peptide competition binding assay by AlphaScreen
T1 construct: 30 nM EED (1-441)-His protein
In short: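 Serially diluted compound (12 points, 3-fold) incubated 20 min with 30 nM EED(1-441)-His and 15 nM biotin-H3K27Me3(19-33) peptide in 25 mM HEPES pH 8, 0.02% Tween-20, 0.5% BSA. Ni-chelate acceptor/streptavidin donor beads (10 μg/mL each) added, 1 h rt dark; 615 nm emission normalized to controls, dose-response fit for IC50.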

[1] = test system: H3K27 methylation in G401 cell; assay: ELISA (H3K27 methylation) assay in G401 cells; type: cell-based, human; conditions: Homo sapiens
In short: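 IC50 from dose-response fit of percent inhibition relative to DMSO, using H3K27me3/me2 ELISA signal (ECL) normalized to histone H3. Histones HCl-extracted after 48 h compound exposure of G401 cells at up to 20 μM, 8- or 12-point 3-fold series.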

[2] = molecular target: wild type PRC2 (wtPRC2) complex (Homo sapiens, UniProt O75530); assay: EED LC-MS assay (SAH production by PRC2); type: biochemical
Sequence of wild type PRC2 (wtPRC2) complex (O75530 whole entry): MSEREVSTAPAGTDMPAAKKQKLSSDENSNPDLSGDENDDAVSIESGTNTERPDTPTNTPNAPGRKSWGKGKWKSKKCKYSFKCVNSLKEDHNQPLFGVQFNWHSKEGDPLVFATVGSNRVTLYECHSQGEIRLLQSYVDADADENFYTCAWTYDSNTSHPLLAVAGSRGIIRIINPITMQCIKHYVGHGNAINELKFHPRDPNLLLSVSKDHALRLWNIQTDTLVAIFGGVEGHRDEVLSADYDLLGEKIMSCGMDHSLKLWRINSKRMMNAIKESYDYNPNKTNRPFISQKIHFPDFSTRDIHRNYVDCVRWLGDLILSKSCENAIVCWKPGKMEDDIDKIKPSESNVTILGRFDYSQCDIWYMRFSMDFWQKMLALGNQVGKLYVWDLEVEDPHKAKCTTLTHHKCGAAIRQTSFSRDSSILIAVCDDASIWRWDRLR
Sequence of wild type PRC2 (wtPRC2) complex (Q15910 whole entry partner): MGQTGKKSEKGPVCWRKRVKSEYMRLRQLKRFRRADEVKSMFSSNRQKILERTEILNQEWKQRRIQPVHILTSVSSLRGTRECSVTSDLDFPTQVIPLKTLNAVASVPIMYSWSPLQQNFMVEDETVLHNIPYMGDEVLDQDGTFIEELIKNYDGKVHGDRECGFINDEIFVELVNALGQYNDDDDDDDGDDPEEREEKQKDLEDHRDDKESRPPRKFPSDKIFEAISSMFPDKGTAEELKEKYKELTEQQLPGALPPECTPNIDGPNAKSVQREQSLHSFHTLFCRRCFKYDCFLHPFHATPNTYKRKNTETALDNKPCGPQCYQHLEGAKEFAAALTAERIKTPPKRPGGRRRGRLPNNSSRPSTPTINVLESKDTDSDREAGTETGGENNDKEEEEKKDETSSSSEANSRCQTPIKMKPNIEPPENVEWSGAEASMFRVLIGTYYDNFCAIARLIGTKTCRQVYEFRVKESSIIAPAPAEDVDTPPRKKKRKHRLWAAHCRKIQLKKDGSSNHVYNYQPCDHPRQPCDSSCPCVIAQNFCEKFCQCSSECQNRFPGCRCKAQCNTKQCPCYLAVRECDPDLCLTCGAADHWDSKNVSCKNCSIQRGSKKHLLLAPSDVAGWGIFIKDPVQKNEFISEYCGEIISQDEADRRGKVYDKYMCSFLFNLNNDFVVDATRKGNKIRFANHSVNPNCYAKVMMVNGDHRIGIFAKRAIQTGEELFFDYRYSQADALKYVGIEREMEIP
Sequence of wild type PRC2 (wtPRC2) complex (Q15022 whole entry partner): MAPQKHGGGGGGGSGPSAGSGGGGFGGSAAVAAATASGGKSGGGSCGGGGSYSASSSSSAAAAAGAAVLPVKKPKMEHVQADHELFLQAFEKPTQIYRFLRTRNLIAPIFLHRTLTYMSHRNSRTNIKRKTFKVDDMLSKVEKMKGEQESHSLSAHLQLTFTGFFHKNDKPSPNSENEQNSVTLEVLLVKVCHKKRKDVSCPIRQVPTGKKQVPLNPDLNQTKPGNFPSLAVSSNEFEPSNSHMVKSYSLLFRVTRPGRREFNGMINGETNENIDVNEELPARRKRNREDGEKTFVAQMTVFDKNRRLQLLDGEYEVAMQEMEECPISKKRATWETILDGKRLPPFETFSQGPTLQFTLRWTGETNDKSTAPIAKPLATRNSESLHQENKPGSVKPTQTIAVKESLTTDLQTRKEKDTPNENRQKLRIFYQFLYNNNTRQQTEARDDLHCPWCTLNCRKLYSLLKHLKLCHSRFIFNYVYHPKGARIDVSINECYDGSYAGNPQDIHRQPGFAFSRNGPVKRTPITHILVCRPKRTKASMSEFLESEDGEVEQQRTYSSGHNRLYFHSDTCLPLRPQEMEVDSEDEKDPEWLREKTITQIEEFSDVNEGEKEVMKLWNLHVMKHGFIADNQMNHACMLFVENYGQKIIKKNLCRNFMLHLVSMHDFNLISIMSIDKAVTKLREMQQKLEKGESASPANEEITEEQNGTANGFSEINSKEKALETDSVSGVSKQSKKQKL
Sequence of wild type PRC2 (wtPRC2) complex (Q09028 whole entry partner): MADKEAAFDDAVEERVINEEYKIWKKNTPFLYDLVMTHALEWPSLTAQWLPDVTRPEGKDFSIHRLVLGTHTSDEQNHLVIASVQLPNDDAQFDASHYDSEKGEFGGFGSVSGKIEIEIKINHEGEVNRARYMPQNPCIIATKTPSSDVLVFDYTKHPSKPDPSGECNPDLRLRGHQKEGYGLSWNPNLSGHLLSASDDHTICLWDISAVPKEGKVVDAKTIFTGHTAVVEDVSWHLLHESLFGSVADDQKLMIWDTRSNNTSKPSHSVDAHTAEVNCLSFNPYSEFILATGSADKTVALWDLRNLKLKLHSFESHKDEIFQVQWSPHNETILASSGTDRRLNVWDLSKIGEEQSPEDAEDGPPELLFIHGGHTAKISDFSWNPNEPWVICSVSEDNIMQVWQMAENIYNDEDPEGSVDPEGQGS
Sequence of wild type PRC2 (wtPRC2) complex (Q6ZN18 whole entry partner): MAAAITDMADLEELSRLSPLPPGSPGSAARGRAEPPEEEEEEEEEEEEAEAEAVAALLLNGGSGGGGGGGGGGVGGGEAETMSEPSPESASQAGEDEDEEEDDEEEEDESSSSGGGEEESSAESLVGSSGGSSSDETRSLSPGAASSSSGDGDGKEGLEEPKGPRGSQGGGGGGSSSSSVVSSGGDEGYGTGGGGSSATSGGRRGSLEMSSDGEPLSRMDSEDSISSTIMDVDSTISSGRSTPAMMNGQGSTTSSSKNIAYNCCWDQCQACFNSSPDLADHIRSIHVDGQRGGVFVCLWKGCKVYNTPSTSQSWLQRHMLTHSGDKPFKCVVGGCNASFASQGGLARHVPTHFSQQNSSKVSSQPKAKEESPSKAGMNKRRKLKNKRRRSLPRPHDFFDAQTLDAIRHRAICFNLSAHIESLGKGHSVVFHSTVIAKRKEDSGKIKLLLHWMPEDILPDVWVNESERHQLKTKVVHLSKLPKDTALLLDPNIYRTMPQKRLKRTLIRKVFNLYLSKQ
Procedure: Compounds of the present invention were assessed for their ability to inhibit PRC2 activity in a pentameric complex of EZH2, SUZ12, EED, Rbap48 and AEBP in biochemical assays. The ability of compounds of the present invention to inhibit cellular activity of PRC2 was assessed by analysing histone H3 lysine 27 methylation in human cell lines. The ability of compounds of the present invention to inhibit cancers was derived from their ability to modulate activity in human cancer cell lines bearing specific dependence to PRC2 activity to maintain cancerous growth.
Representative compounds of the present invention were serially and separately diluted 3-fold in DMSO to obtain a total of eight or twelve concentrations. Then the test compounds at each concentration (120 nL of each) were transferred by Mosquito into a 384-well Perkin Elmer ProxiPlate 384 plus plates. Solutions (6 μL) of 24 nM the wild type PRC2 (wtPRC2) complex and 2 μM SAM in reaction buffer (20 mM Tris, pH 8.0, 0.1% BSA, 0.01% Triton, 0.5 mM DTT) were added to the wells that were then incubated with the test compound for 20 min. A 6 μL solution of 3 μM of the peptide substrate H3K27Me0 (histone H3[21-44]-biotin) in reaction buffer was added to initiate each reaction. The final components in the reaction solution include 12 nM wtPRC2 complex, 1 μM SAM, and 1.5 μM H3K27me0 peptide with varying concentration of the compounds. A positive control consisted of the enzyme, 1 μM SAM and 1.5 μM substrate in the absence of the test compound, and a negative control consisted of 1 μM SAM and 1.5 μM substrate only. Each reaction was incubated at rt for 120 min, then stopped by addition of 3 μL per of quench solution (2.5% TFA with 320 nM d4-SAH). The reaction mixture was centrifuged (Eppendorf centrifuge 5810, Rotor A-4-62) for 2 min at 2000 rpm and read on an API 4000 triple quadrupole mass spec with Turbulon Spray (Applied Biosystem) coupled with Prominence UFLC (Shimadzu). The levels of SAH production were then normalized based on the values coming from the positive and negative controls to give percent enzyme activities. The data were then fit to a dose response equation using the program Helios to get the IC50 values of the test compound.

[3] = EED-H3K27Me3 peptide competition, AlphaScreen, read-out: (a) IC50 EED Alphascreen binding Qualified
[4] = G-401, H3K27 methylation ELISA, read-out: (c) IC50 ELISA Qualified
[5] = PRC2 LC-MS assay, read-out: (b) IC50 EED LC-MS Qualified
[6] = read-out: (a) IC50 EED Alphascreen binding Qualified
[7] = G-401, read-out: (c) IC50 ELISA Qualified
[8] = read-out: (b) IC50 EED LC-MS Qualified
[9] = read-out: (a) IC50, EED Alphascreen binding Qualified
[10] = G-401, read-out: (c) IC50, ELISA Qualified
[11] = read-out: (b) IC50, EED LC-MS Qualified

T1 sequence (O75530 whole entry): as the sequence (O75530 whole entry) above

IC50 (EED (1-441)-His protein; [3]) | IC50 [1, 4] | IC50 [2, 5] | Compound | other results
26.1 nM | 29.8 nM | 71.6 nM | COc1cccc(F)c1CNc1ccc(-c2cc(Cl)cnc2C)c2nncn12 [Example 326, 8-(5-chloro-2-methylpyridin-3-yl)-N-(2-fluoro-6-methoxybenzyl)-[1,2,4]triazolo[4,3-a] pyridin-5-amine] | 
31.4 nM | 10.6 nM | 20.1 nM | COc1cccc(F)c1CNc1ccc(-c2ccc(S(C)(=O)=O)nc2C(F)F)c2nncn12 [Example 293, 8-(2-(difluoromethyl)-6-(methylsulfonyl)pyridin-3-yl)-N-(2-fluoro-6-methoxybenzyl)-[1,2,4] triazolo[4,3-a]pyridin-5-amine] | 
12.5 nM | 25.5 nM | 523 nM | COc1cccc(F)c1CNc1ccc(-c2cccnc2C#N)c2nncn12 [Example 340, 3-(5-((2-fluoro-6-methoxybenzyl)amino)-[1,2,4]triazolo[4,3-a]pyridin-8-yl) picolinonitrile] | 
22.3 nM | 18.6 nM | 110 nM | COc1cc(F)cc(F)c1CNc1ccc(-c2ccc(C)nc2C(F)F)c2nncn12 [Example 314, N-(2,4-difluoro-6-methoxybenzyl)-8-(2-(difluoromethyl)-6-methylpyridin-3-yl)-[1,2,4]triazolo [4,3-a]pyridin-5-amine] | 
11 nM | 6.4 nM | 27 nM | COc1cccc(F)c1CNc1ccc(-c2ccnc(CF)c2C)c2nncn12 [Example 278, N-(2-fluoro-6-methoxybenzyl)-8-(2-(fluoromethyl)-3-methylpyridin-4-yl)-[1,2,4] triazolo[4,3-a]pyridin-5-amine] | 
24 nM | 24 nM | 96.2 nM | COc1cccc(F)c1CNc1ccc(-c2cn(C)nc2CO)c2nncn12 [Example 330, (4-(5-((2-fluoro-6-methoxy benzyl)amino)-[1,2,4]triazolo[4,3-a]pyridin-8-yl)-1-methyl-1H-pyrazol-3-yl) methanol] | 
42.3 nM | 17.5 nM | 618 nM | COc1cc(F)cc(F)c1CNc1ccc(-c2ccncc2C)c2nncn12 [Example 297, N-(2,4-difluoro-6-methoxybenzyl)-8-(3-methylpyridin-4-yl)-[1,2,4]triazolo[4,3-a] pyridin-5-amine] | 
67.9 nM | 86.9 nM | 362 nM | CCc1ncccc1-c1ccc(NCc2c(F)cc(F)cc2OC)n2cnnc12 [Example 298, N-(2,4-difluoro-6-methoxybenzyl)-8-(2-ethylpyridin-3-yl)-[1,2,4]triazolo[4,3-a] pyridin-5-amine] | 
35.6 nM | 53.2 nM | 218 nM | COc1cc(F)cc(F)c1CNc1ccc(-c2cnc(C)cc2C(F)F)c2nncn12 [Example 317, N-(2,4-difluoro-6-methoxybenzyl)-8-(4-(difluoromethyl)-6-methylpyridin-3-yl)-[1,2,4]triazolo [4,3-a]pyridin-5-amine] | 
23 nM | 16.9 nM | 124 nM | COc1cccc(F)c1CNc1ccc(-c2cc(C(F)(F)F)ncc2C)c2nncn12 [Example 281, N-(2-fluoro-6-methoxybenzyl)-8-(5-methyl-2-(trifluoromethyl)pyridin-4-yl)-[1,2,4]triazolo[4,3-a] pyridin-5-amine] | 

Further lines, the compound ahead of its results:

Compound | IC50 (EED (1-441)-His protein; [3]) | IC50 [1, 4] | IC50 [2, 5] | other results
COc1cccc(F)c1CNc1ccc(-c2ccc(CCC(=O)N(C)C)nc2)c2nncn12 [Example 234, 3-(5-(5-((2-fluoro-6-methoxybenzyl)amino)-[1,2,4]triazolo[4,3-a]pyridin-8-yl)pyridin-2-yl)-N,N-dimethyl propanamide] | 35 nM | 26.3 nM | 149 nM | 
COc1cccc(F)c1CNc1ccc(-n2ccnc2C)c2nncn12 [Example 362, N-(2-fluoro-6-methoxybenzyl)-8-(2-methyl-1H-imidazol-1-yl)-[1,2,4]triazolo [4,3-a]pyridin-5-amine] |  |  |  | IC50 (EED (1-441)-His protein; [6]): 39.8 nM; IC50 [1, 7]: 17 nM; IC50 [2, 8]: 33.4 nM
COc1ccccc1CNc1ccc(-c2ccc(C)nc2)c2nncn12 [Example 111, N-(2-methoxybenzyl)-8-(6-methylpyridin-3-yl)-[1,2,4] triazolo[4,3-a]pyridin-5-amine] |  |  |  | IC50 (EED (1-441)-His protein; [9]): 76.5 nM; IC50 [1, 10]: 56.7 nM; IC50 [2, 11]: 405 nM
COc1ccccc1CNc1ccc(-c2ccc(CN3CCC3)cc2)c2nncn12 [Example 29, 8-(4-(azetidin-1-ylmethyl)phenyl)-N-(2-methoxybenzyl)-[1,2,4]triazolo[4,3-a] pyridin-5-amine] |  |  |  | IC50 (EED (1-441)-His protein; [9]): 13 nM; IC50 [1, 10]: 23.1 nM; IC50 [2, 11]: 87.7 nM
COc1cccc(F)c1CNc1ccc(-c2c(C)nn(C(C)C)c2C)c2nncn12 [Example 245, N-(2-fluoro-6-methoxybenzyl)-8-(1-isopropyl-3,5-dimethyl-1H-pyrazol-4-yl)-[1,2,4]triazolo[4,3-a]pyridin-5-amine] | 14.6 nM | 8.2 nM | 27.7 nM | 
COc1ccccc1CNc1ccc(-c2ccc(N3CC(C)N(C)CC3C)nc2)c2nncn12 (stereo not drawn) [Example 168, N-(2-methoxybenzyl)-8-(6-(2,4,5-trimethylpiperazin-1-yl)pyridin-3-yl)-[1,2,4] triazolo[4,3-a]pyridin-5-amine] |  |  |  | IC50 (EED (1-441)-His protein; [9]): 50.5 nM; IC50 [1, 10]: 105 nM; IC50 [2, 11]: 168 nM
COc1cccc(F)c1CNc1ccc(-c2cnn(C3CCOCC3)c2)c2nncn12 [Example 212, N-(2-fluoro-6-methoxybenzyl)-8-(1-(tetrahydro-2H-pyran-4-yl)-1H-pyrazol-4-yl)-[1,2,4]triazolo[4,3-a] pyridin-5-amine] | 18 nM | 22.6 nM | 75.6 nM | 
COc1cccc(F)c1CNc1ccc(-c2ccc(C(C)(C)C#N)nc2C)c2nncn12 [Example 369, 2-(5-(5-((2-fluoro-6-methoxybenzyl)amino)-[1,2,4]triazolo[4,3-a]pyridin-8-yl)-6-methylpyridin-2-yl)-2-methylpropanenitrile] |  |  |  | IC50 (EED (1-441)-His protein; [6]): 5.2 nM; IC50 [1, 7]: 2.9 nM; IC50 [2, 8]: 205 nM
COc1ccccc1CNc1ccc(-c2ccc(S(=O)(=O)C3CCN(C)CC3)cc2)c2nncn12 [Example 128, N-(2-methoxybenzyl)-8-(4-((1-methylpiperidin-4-yl)sulfonyl)phenyl)-[1,2,4] triazolo[4,3-a]pyridin-5-amine] |  |  |  | IC50 (EED (1-441)-His protein; [9]): 33.2 nM; IC50 [1, 10]: 18.5 nM; IC50 [2, 11]: 224 nM
CCn1nccc1-c1ccc(NCc2c(F)cccc2OC)n2cnnc12 [Example 233, 8-(1-ethyl-1H-pyrazol-5-yl)-N-(2-fluoro-6-methoxybenzyl)-[1,2,4]triazolo[4,3-a] pyridin-5-amine] | 14 nM | 15.3 nM | 47.8 nM | 
COc1cccc(F)c1CNc1ccc(-n2ccnn2)c2nncn12 [Example 361, N-(2-fluoro-6-methoxybenzyl)-8-(1H-1,2,3-triazol-1-yl)-[1,2,4]triazolo[4,3-a] pyridin-5-amine] |  |  |  | IC50 (EED (1-441)-His protein; [6]): 15.1 nM; IC50 [1, 7]: 21.1 nM; IC50 [2, 8]: 69.6 nM
COc1ccccc1CNc1ccc(-c2ccc(CN3CCOCC3)cc2)c2nncn12 [Example 30, N-(2-methoxybenzyl)-8-(4-(morpholinomethyl)phenyl)-[1,2,4]triazolo[4,3-a]pyridin-5-amine] |  |  |  | IC50 (EED (1-441)-His protein; [9]): 38.2 nM; IC50 [1, 10]: 113 nM; IC50 [2, 11]: 483 nM
COc1ccccc1CNc1ccc(-c2ccc(S(N)(=O)=O)cc2)c2nncn12 [Example 73, 4-(5-((2-methoxybenzyl)amino)-[1,2,4]triazolo[4,3-a]pyridin-8-yl)benzene sulfonamide] |  |  |  | IC50 (EED (1-441)-His protein; [9]): 45.2 nM; IC50 [1, 10]: 397 nM; IC50 [2, 11]: 236 nM

— US10689378B2, “Triazolopyridine compounds and uses thereof” (Novartis AG, priority 2016, dated 2020)
